Measured values taken from patent US20220225616A1, “Antifungal Wallboards” (LANXESS Deutschland GmbH, priority 2019, published 2022).
Entries after “also recorded” stand apart in the source; their conditions may differ.

Key:
Stachybotris chartarum = experiment: Gypsum board hand sheet efficacy testing (core protection), ASTM G 21-09; settings: in gypsum core, 4 weeks at 28-30° C.
From the text: (§1) For examination of the antifungal performance of the TBZ/BBIT combinations testing directly in gypsum boards provides realistic and practically relevant data for evaluation. […] For this purpose, a typical slurry recipe as given below for board production is used. Gypsum Board recipe:
(§2) The slurry is formed by mixing the dry components and the wet components together. The slurry is then mixed to achieve a homogeneous consistency. The fungicides are incorporated during preparation of the gypsum slurry by adding and mixing the fungicidal mixtures. For sandwiching the gypsum core, untreated cardboard (without fungicide) with a grammage of appr. 180 g/m^2 was used and after assembly of the plate the hand sheets are dried. The following antifungal compounds and respective formulations were used: • Thiabendazole • Butylbenzthiazole
(§3) For efficacy testing a test method of ASTM G 21 of 2009 was applied. As only change additional to the fungi mix as required by ASTM G 21-09, Fusarium solani and Aspergillus hiratsukae were included as further components of the mixed inoculum. According to this method, the manufactured gypsum boards as described above and after having been cut to an adequate size are placed on an agarplate and superficially are spoiled with fungal spores for a determined period of time of at the most 4 weeks. The respective total amount of actives in ppm based in gypsum/plaster (CaSO4(0.5 H2O) can be seen in the table.
(§4) Spore suspensions are produced for each fungi (spore concentrations of approximately 10^6/ml). Organisms which are included in ASTM G 21 comprise Aspergillus niger (ATCC 9642), Aureobasidium pullulans (ATCC 15233) Chaetomium globosum (ATCC 6205), Gliocladium virens (ATCC 6459) and Penicillium pinophilium (ATCC 11797) (as pure culture but also as mixed inoculum), however any other fungi species known to be able to grow in gypsum boards may be used in addition or instead. Mineral agar (according to ASTM G21 of 2009) was used as growth media in the agar plates. Before inoculation the gypsum board hand sheets are cut into pieces of appr. 5×5 cm.
(§5) For every concentration level, 3 test pieces are used in the test. Each sample is placed in a separate petri dish and then inoculated with the fungi. The samples are then incubated at 28-30° C. for 28 days. Pre-reading of the samples may be performed at approximately 10 days after inoculation. The activity of the treatments may be assessed visually, using a rating system of 0-4 for growth inhibition of fungal growth.
(§6) The reported results are recorded after 4 weeks testing at 28-30° C. according to the requirements of test method ASTM G 21 can be seen from Table 2: […]

[1] = test system: Fungi Mix: standard ASTM G 21-09 species extended by Fusarium solani and Aspergillus hiratsukae; experiment: as above; settings: for Fungal growth rating, Fungi Mix: in gypsum core, 4 weeks at 28-30° C.; for Overall efficacy in gypsum board test, in words: tested concentration range 25-300 ppm, interpretation of tables 2 and 3
From the text: as §1, §2, §3, §4, §5, §6

[2] = 25 ppm total actives based on gypsum/plaster
[3] = 50 ppm total actives based on gypsum/plaster
[4] = 100 ppm total actives based on gypsum/plaster
[5] = 200 ppm total actives based on gypsum/plaster
[6] = 300 ppm total actives based on gypsum/plaster

Row | Compound | Fungal growth rating, Stachybotris (Stachybotris chartarum; [2]) | Fungal growth rating, Stachybotris (Stachybotris chartarum; [3]) | Fungal growth rating, Stachybotris (Stachybotris chartarum; [4]) | Fungal growth rating, Stachybotris (Stachybotris chartarum; [5]) | Fungal growth rating, Stachybotris (Stachybotris chartarum; [6]) | Fungal growth rating, Fungi Mix [1, 2] | Fungal growth rating, Fungi Mix [1, 3] | Fungal growth rating, Fungi Mix [1, 4] | Fungal growth rating, Fungi Mix [1, 5] | Fungal growth rating, Fungi Mix [1, 6] | Overall efficacy in gypsum board test, in words [1]
1 | CO/C=C(/C(=O)OC)c1ccccc1Oc1cc(Oc2ccccc2C#N)ncn1 [AZO, Azoxystrobin] | 4 (Heavy growth (60% to complete coverage)) | 4 (Heavy growth (60% to complete coverage)) | 4 (Heavy growth (60% to complete coverage)) | 4 (Heavy growth (60% to complete coverage)) | 4 (Heavy growth (60% to complete coverage)) | 4 (Heavy growth (60% to complete coverage)) | 4 (Heavy growth (60% to complete coverage)) | 4 (Heavy growth (60% to complete coverage)) | 4 (Heavy growth (60% to complete coverage)) | 4 (Heavy growth (60% to complete coverage)) | neither TBZ nor AZO alone are good enough to pass the ASTM G 21 test
2 | CCCCn1sc2ccccc2c1=O [BBIT, 2-butyl-1,2-benzisothiazolin-3-one] | 4 (Heavy growth (60% to complete coverage)) | 4 (Heavy growth (60% to complete coverage)) | 4 (Heavy growth (60% to complete coverage)) | 2 (Light growth (10 to 30%)) | 1 (Traces of growth (less than 10%)) | 4 (Heavy growth (60% to complete coverage)) | 4 (Heavy growth (60% to complete coverage)) | 4 (Heavy growth (60% to complete coverage)) | 2 (Light growth (10 to 30%)) | 1 (Traces of growth (less than 10%)) | better than TBZ, however still not fully satisfactory
3 | c1ccc2[nH]c(-c3cscn3)nc2c1 [TBZ, thiabendazole] | 4 (Heavy growth (60% to complete coverage)) | 4 (Heavy growth (60% to complete coverage)) | 4 (Heavy growth (60% to complete coverage)) | 4 (Heavy growth (60% to complete coverage)) | 3 (Medium growth (30 to 60%)) | 4 (Heavy growth (60% to complete coverage)) | 4 (Heavy growth (60% to complete coverage)) | 4 (Heavy growth (60% to complete coverage)) | 4 (Heavy growth (60% to complete coverage)) | 3 (Medium growth (30 to 60%)) | not good enough for control of fungi growth; also recorded: neither TBZ nor AZO alone are good enough to pass the ASTM G 21 test
